# How the values were obtained:
# Format in all cases: cell-based
# [1] = tested on: A431 (epidermoid carcinoma); assay: Antiproliferative activity (CCK-8 cell viability), A431; conditions: Homo sapiens, 72 h, read-out: Antiproliferative activity in cancerous cells, A431 (inhibition of cell growth); for inhibition at 3.3 µM: A-431, Compound concentration: 3.3 μM; for inhibition at 10 µM: A-431, Compound concentration: 10 μM
# How it was run: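 A431 epidermoid carcinoma cells grown in DMEM with 10% FBS were plated at 2,000-5,000 cells/well in 96-well plates. After attachment they were exposed to compound at 3.3 μM, 10 μM, or 30 μM for 72 h at 37° C. Viability was then assessed by CCK-8 against DMSO vehicle-treated wells.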
# [2] = tested on: MDA-MB-231 (breast cancer); assay: Antiproliferative activity (CCK-8 cell viability), MDA-MB-231; conditions: Homo sapiens, 72 h, read-out: Antiproliferative activity in cancerous cells, MDA-MB-231 (inhibition of cell growth); for inhibition at 3.3 µM: Compound concentration: 3.3 μM; for inhibition at 10 µM: Compound concentration: 10 μM
# How it was run: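 MDA-MB-231 breast cancer cells, grown in DMEM with 10% FBS, were plated in 96-well plates at 2,000-5,000 cells/well. Once attached, they were exposed to compound and incubated at 37° C. for 72 h. Viability was then measured with CCK-8 (10 μL per well, 4 h at 37° C.) by absorbance at 450 nm, relative to DMSO vehicle wells.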
# [3] = tested on: B16F10 (malignant melanoma); assay: Antiproliferative activity (CCK-8 cell viability), B16F10; conditions: Mus musculus, 72 h, read-out: Antiproliferative activity in cancerous cells, B16F10 (inhibition of cell growth); for inhibition at 3.3 µM: B16-F10, Compound concentration: 3.3 μM; for inhibition at 10 µM: B16-F10, Compound concentration: 10 μM
# How it was run: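 B16F10 melanoma cells grown in DMEM with 10% FBS were plated in 96-well plates at 2,000-5,000 cells/well. After attachment they were exposed to compound in medium for 72 h at 37° C. CCK-8 solution (10 μL) was then added, and after 4 h at 37° C absorbance was read at 450 nm.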
# [4] = tested on: A549 (lung adenocarcinoma); assay: Antiproliferative activity (CCK-8 cell viability), A549; conditions: Homo sapiens, 72 h, read-out: Antiproliferative activity in cancerous cells, A549 (inhibition of cell growth); for inhibition at 3.3 µM: Compound concentration: 3.3 μM; for inhibition at 10 µM: Compound concentration: 10 μM
# How it was run: (§1)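 Cells grown in DMEM (HepG2, SW480), MEM (HeLa) or F-12K (A549), each with 10% FBS, then exposed to compound at 3.3, 10 or 30 μM for 72 h at 37 °C. CCK-8 absorbance at 450 nm; viability expressed as percent of DMSO-treated cells, graded as growth inhibition bands.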
# SW480 (colon cancer) = assay: Antiproliferative activity (CCK-8 cell viability), SW480; conditions: Homo sapiens, 72 h, read-out: Antiproliferative activity in cancerous cells, SW480 (inhibition of cell growth); for inhibition at 3.3 µM: Compound concentration: 3.3 μM; for inhibition at 10 µM: Compound concentration: 10 μM
# How it was run: as §1
# HepG2 (liver cancer) = assay: Antiproliferative activity (CCK-8 cell viability), HepG2; conditions: Homo sapiens, 72 h, read-out: Antiproliferative activity in cancerous cells, HepG2 (inhibition of cell growth); for inhibition at 3.3 µM: Compound concentration: 3.3 μM; for inhibition at 10 µM: Compound concentration: 10 μM
# How it was run: as §1
# HeLa (cervical cancer) = assay: Antiproliferative activity (CCK-8 cell viability), HeLa; conditions: Homo sapiens, 72 h, read-out: Antiproliferative activity in cancerous cells, HELA (inhibition of cell growth); for inhibition at 3.3 µM: Compound concentration: 3.3 μM; for inhibition at 10 µM: Compound concentration: 10 μM
# How it was run: as §1
SMILES,inhibition at 3.3 µM [1],inhibition at 10 µM [1],inhibition at 3.3 µM [2],inhibition at 10 µM [2],inhibition at 3.3 µM [3],inhibition at 10 µM [3],inhibition at 3.3 µM [4],inhibition at 10 µM [4],inhibition at 3.3 µM (SW480 (colon cancer)),inhibition at 10 µM (SW480 (colon cancer)),inhibition at 3.3 µM (HepG2 (liver cancer)),inhibition at 10 µM (HepG2 (liver cancer)),inhibition at 3.3 µM (HeLa (cervical cancer)),inhibition at 10 µM (HeLa (cervical cancer))
"CC1=C(CC(=O)O)c2cc(F)ccc2/C1=C\c1cccc(Oc2ccc3ccccc3c2)c1 [C99, (Z)-2-(5-Fluoro-2-methyl-1-(3-(naphthalen-2-yloxy)benzylidene)-1H-inden-3-yl)acetic acid]",< 30%,< 30%,< 30%,30 to 50%,≥ 50%,≥ 50%,< 30%,< 30%,< 30%,< 30%,< 30%,≥ 50%,< 30%,≥ 50%
"CC1=C(CC(=O)O)c2cc(F)ccc2/C1=C\c1cccc(Oc2ccc(I)cc2)c1 [C100, (Z)-2-(5-Fluoro-1-(3-(4-iodophenoxy)benzylidene)-2-methyl-1H-inden-3-yl)acetic acid]",< 30%,< 30%,< 30%,< 30%,< 30%,30 to 50%,< 30%,30 to 50%,< 30%,< 30%,< 30%,≥ 50%,< 30%,≥ 50%
"CC1=C(CC(=O)O)c2cc(F)ccc2/C1=C\c1cccc(Oc2cccc(Cl)c2)c1 [C101, (Z)-2-(1-(3-(3-Chlorophenoxy)benzylidene)-5-fluoro-2-methyl-1H-inden-3-yl)acetic acid]",30 to 50%,≥ 50%,< 30%,< 30%,≥ 50%,≥ 50%,< 30%,< 30%,< 30%,30 to 50%,< 30%,≥ 50%,< 30%,30 to 50%
"COc1ccc(Oc2cccc(/C=C3/C(C)=C(CC(=O)O)c4cc(F)ccc43)c2)cc1Cl [C102, (Z)-2-(1-(3-(3-Chloro-4-methoxyphenoxy)benzylidene)-5-fluoro-2-methyl-1H-inden-3-yl)acetic acid]",≥ 50%,≥ 50%,≥ 50%,≥ 50%,≥ 50%,≥ 50%,≥ 50%,≥ 50%,< 30%,≥ 50%,≥ 50%,≥ 50%,< 30%,≥ 50%
"CC1=C(CC(=O)O)c2cc(F)ccc2/C1=C\c1cccc(Oc2ccc(O)c(Cl)c2)c1 [C103, (Z)-2-(1-(3-(3-Chloro-4-hydroxyphenoxy)benzylidene)-5-fluoro-2-methyl-1H-inden-3-yl)acetic acid]",30 to 50%,≥ 50%,< 30%,≥ 50%,≥ 50%,≥ 50%,30 to 50%,≥ 50%,< 30%,≥ 50%,< 30%,≥ 50%,< 30%,≥ 50%
"CC1=C(CC(=O)O)c2cc(Cl)ccc2/C1=C\c1cccc(Oc2ccc(O)cc2)c1 [C104, (Z)-2-(5-Chloro-1-(3-(4-hydroxyphenoxy)benzylidene)-2-methyl-1H-inden-3-yl)acetic acid]",≥ 50%,≥ 50%,< 30%,≥ 50%,≥ 50%,≥ 50%,< 30%,≥ 50%,< 30%,≥ 50%,< 30%,≥ 50%,≥ 50%,≥ 50%
"CC1=C(CC(=O)O)c2cc(Cl)ccc2/C1=C\c1cccc(Oc2ccc(C(F)(F)F)cc2)c1 [C105, (Z)-2-(5-Chloro-2-methyl-1-(3-(4-(trifluoromethyl)phenoxy)benzylidene)-1H-inden-3-yl)acetic acid]",≥ 50%,≥ 50%,≥ 50%,≥ 50%,≥ 50%,≥ 50%,≥ 50%,≥ 50%,≥ 50%,≥ 50%,≥ 50%,≥ 50%,≥ 50%,≥ 50%
"CCc1ccc2c(c1)C(CC(=O)O)=C(C)/C2=C/c1cccc(Oc2ccc(C(F)(F)F)cc2)c1 [C106, (Z)-2-(5-Ethyl-2-methyl-1-(3-(4-(trifluoromethyl)phenoxy)benzylidene)-1H-inden-3-yl)acetic acid]",30 to 50%,≥ 50%,≥ 50%,≥ 50%,≥ 50%,≥ 50%,≥ 50%,≥ 50%,≥ 50%,≥ 50%,≥ 50%,≥ 50%,≥ 50%,≥ 50%
"COc1cc(Oc2cccc(/C=C3/C(C)=C(CC(=O)O)c4cc(F)ccc43)c2)ccc1Cl [C107, (Z)-2-(1-(3-(4-Chloro-3-methoxyphenoxy)benzylidene)-5-fluoro-2-methyl-1H-inden-3-yl)acetic acid]",≥ 50%,≥ 50%,≥ 50%,≥ 50%,≥ 50%,≥ 50%,≥ 50%,≥ 50%,30 to 50%,≥ 50%,< 30%,≥ 50%,< 30%,≥ 50%
"CC1=C(CC(=O)O)c2cc(Br)ccc2/C1=C\c1cccc(Oc2ccc(Cl)cc2)c1 [C108, (Z)-2-(5-Bromo-1-(3-(4-chlorophenoxy)benzylidene)-2-methyl-1H-inden-3-yl)acetic acid]",≥ 50%,≥ 50%,≥ 50%,≥ 50%,≥ 50%,≥ 50%,< 30%,≥ 50%,< 30%,30 to 50%,< 30%,≥ 50%,< 30%,≥ 50%
"CC1=C(CC(=O)O)c2cc(Br)ccc2/C1=C\c1cccc(Oc2ccccc2)c1 [C110, (Z)-2-(5-Bromo-2-methyl-1-(3-phenoxybenzylidene)-1H-inden-3-yl)acetic acid]",< 30%,≥ 50%,< 30%,≥ 50%,≥ 50%,≥ 50%,< 30%,≥ 50%,< 30%,30 to 50%,< 30%,≥ 50%,< 30%,≥ 50%

# — patent publication US20260184663A1, “INDENE COMPOUNDS, PHARMACEUTICAL COMPOSITIONS THEREOF, AND THEIR THERAPEUTIC APPLICATIONS” (NucMito Pharmaceuticals co. Ltd., priority 2022, published 2026)
